In patent EP0723771A2, “Agent and process for permanent hair waving” (Wella Aktiengesellschaft, priority 1995, dated 1996):

Settings: lower pH values (pH = 7 or 8); conclusion from Tabelle 1
Procedure: Zum Vergleich der Wellwirksamkeit wurden an blondierten Haarsträhnen aus mitteleuropäischem Haar Wellstabilitäten ermittelt. Hierzu wurden 16,5 Zentimeter lange, aus etwa 100 Haaren bestehende Haarsträhnen auf Wickler mit einem Innendurchmesser von 3 Millimetern gewickelt und mit einer 87 mmol Reduktionsmittel pro 100 g Lösung enthaltenden, auf den jeweiligen pH-Wert eingestellten, Reduktionsmittellösung bei 50 Grad Celsius 20 Minuten lang behandelt, wobei eine Menge von 1,2 ml Reduktionsmittellösung pro Gramm Haarsträhne verwendet wurde.
Anschließend wurde das Haar mit einer 3-prozentigen wäßrigen Wasserstoffperoxidlösung oxidativ nachbehandelt, getrocknet und sodann 4 Stunden lang in Wasser ausgehängt. Im Anschluß hieran wurde die Wellstabilität bestimmt.
Die Wellstabilitäten wurden hierbei nach der folgenden Formel ermittelt: [formula] I0 = Gesamtlänge der nicht umgeformten, gestreckten Strähne (16,5 Zentimeter) It = Länge der abgewickelten, ausgehängten Strähne nach 240 Minuten I1 = Länge der umgeformten, aufgewickelten Strähne bei einem Wickelinnendurchmesser von 3 mm (I1 = 35 Millimeter)
Als Reduktionsmittel wurden Cysteamin (Formel (I) mit R = H) und N-Mesylcysteamin (Formel (I) mit R = SO2CH3) sowie als Vergleichsstandard eine auf pH = 9 eingestellte Glycerinmonothioglycolat-Lösung (Wellstabilität = 100 %) verwendet. […]

In the case of `CS(=O)(=O)NCCS` [R = -SO2-CH3, N-2-Mercaptoethylmethansulfonsäureamid], the “Wellwirksamkeit gegenüber Cysteamin” value was “signifikant höhere Wellwirksamkeit”.
